One assay deals with SH-SY5Y nerve cells. Put plainly: Rotenone-treated Parkinson's disease cell model, necrotic cell death (LDH detection kit). Format: cell-based, human. On the procedure: Rotenone is a substance widely used in cell models to induce Parkinson's disease. It is well known that when a nerve cell is treated with rotenone, mitochondrial function is destroyed, and oxidative stress is induced to cause death of the nerve cell.
The SH-SY5Y nerve cell culture medium was treated with cP1P drug at concentrations of 100 nM and 1000 nM, respectively, and cultured for 24 hours. Then, rotenone (Sigma) was dissolved in DMSO, diluted to a final concentration of 2 μM, and added to the SH-SY5Y nerve cell culture medium. The SH-SY5Y nerve cells were cultured for an additional 24 hours. SH-SY5Y nerve cells were obtained and cultured in the same manner as in Example 1.
Necrotic cell death was measured for the cultured SH-SY5Y nerve cells using a lactate dehydrogenase (LDH) detection kit (BioVision).
For comparison, the necrotic cell death was also measured for the control group that was treated only with DMSO without cP1P drug and rotenone, and the control group that was treated only with diluted rotenone solution without cP1P drug. In addition, the necrotic cell death was measured for the treatment of the nerve cells with the cP1P drug at concentrations of 100 nM and 1000 nM, respectively.

The subject of another assay is SH-SY5Y cells. Put plainly: MPP+-treated Parkinson's disease cell model, cell survival (MTT assay). The format is cell-based, human. On the procedure: To prepare a Parkinson's disease cell model by inducing oxidative stress with MPP^+ (1-methyl-4-phenylpyridinium iodide, Sigma), MPP^+ was dissolved in a phosphate buffer solution, diluted to a final concentration of 3 mM, and added to a nerve cell culture medium. To confirm the efficacy of the cP1P drug in the MPP^+ environment, SH-SY5Y cells were pretreated with cP1P drug at concentrations of 10 nM, 100 nM, and 1000 nM, respectively, for 1 hour, and then exposed to oxidative stress by treatment with 3 mM MPP^+ for 24 hours. The efficacy of the cP1P drug on the survival of SH-SY5Y cells after 24 hours of exposure to oxidative stress was determined by MTT assay.
In general terms: Tetrazolium assays rely on reduction of a dye to a coloured formazan, in cell work by metabolically active cells.

Assay [1] deals with SH-SY5Y human nerve cell line. The assay is described as follows: Proliferation of SH-SY5Y human nerve cells (MTT assay). To be noted: 48 hours. The format is cell-based. The protocol: The SH-SY5Y human nerve cell line purchased from ATCC was used as a nerve cell line to evaluate the effect of the cP1P drug on the proliferation of dopaminergic human nerve cells. Dulbeco's Modified Eagle's Media/high glucose (with 10% FBS, 0.5% P/S) was used as a medium for culturing nerve cells, and the nerve cells were cultured at 37° C. in 5% CO2 incubator.
In order to observe the effect of cP1P drug on the proliferation of the dopaminergic human nerve cells, SH-SY5Y cells were treated with cP1P drug at concentrations of 10 nM, 100 nM and 1000 nM, respectively, and cultured for 48 hours. MTT assay (Molecular Probes) was performed according to the manufacturer's method to measure the cell proliferation rate.

The test system of assay [2] is Tyrosine hydroxylase (TH). Put plainly: Tyrosine hydroxylase (TH) expression in SH-SY5Y nerve cells (immunohistochemistry and western blot). Format: cell-based, human. To be noted: 24 hours. The protocol:
Tyrosine hydroxylase (TH) is an enzyme that converts amino acid tyrosine into L-DOPA, a precursor of dopamine, and plays an important role in the formation of dopamine in nerve cells.
In order to confirm the efficacy of the cP1P drug on TH expression in SH-SY5Y nerve cells, SH-SY5Y nerve cell culture was treated with the cP1P drug at concentrations of 10 nM and 100 nM, respectively. TH expression was determined by immunohistochemistry and western blot after 24 hours.
(In western blotting, separated proteins are transferred to a membrane and probed.)

As to `CCCCCCCCCCCCCC[C@@H](O)[C@H]1OP(=O)(O)OC[C@@H]1N` [cP1P, O-cyclic phytosphingosine-1-phosphate], the “degree of cell death” value with SH-SY5Y nerve cells (cP1P 100 nM and 1000 nM alone, without rotenone) is listed as “reduced the degree of cell death compared to the control group treated only with DMSO”. The nerve cell death result with SH-SY5Y nerve cells (cP1P 100 nM and 1000 nM for 24 hours, then rotenone 2 μM for 24 hours) is on record as “inhibited to the level equivalent to that of DMSO treatment without rotenone”; in the assay on SH-SY5Y cells (cP1P 100 nM pretreatment 1 hour, then 3 mM MPP+ 24 hours) it was “significantly reduced”; in the assay with SH-SY5Y cells (cP1P pretreatment (10, 100, 1000 nM) 1 hour, then 3 mM MPP+ 24 hours), “significantly reduced”. Besides, the “effect on the proliferation of SH-SY5Y cells” value in assay [1] (10 nM) is reported as “effect on the proliferation of SH-SY5Y cells appeared”. For the same molecule, the “effect on the nerve cell proliferation” value in assay [1] (100 nM (of 10, 100, 1000 nM)) is listed as “highest”. In addition, the “expression of the TH enzyme” value in assay [2] (10 nM) and in assay [2] (100 nM) was “increased” in each case.

Consider `C=C(C)[C@H]1Cc2c(ccc3c2O[C@@H]2COc4cc(OC)c(OC)cc4[C@@H]2C3=O)O1` [rotenone, reference compound], for which, in the assay on SH-SY5Y nerve cells (rotenone 2 μM only, 24 hours), the “degree of nerve cell death” value is reported as “exceed 30%”.

Turning to `C[n+]1ccc(-c2ccccc2)cc1.[I-]` [MPP^+, 1-methyl-4-phenylpyridinium iodide, reference compound], the nerve cell death entry in the assay with SH-SY5Y cells (MPP+ 3 mM only, 24 hours) is listed as “the nerve cells were killed”.

These data come from patent US12351595B2, “Composition comprising O-cyclic phytosphingosine-1-phosphate for preventing or treating Parkinson's disease” (AXCESO BIOPHARMA CO., LTD., priority 2019, dated 2025).
